The test system of assay [1] is MCF10A cells. Put plainly: Collective cell migration assay on modular polyacrylamide (mPA) dual-stiffness substrate. It counts as cell-based, Human. As to the method: Human mammary epithelial non-tumorigenic MCF10A cells were cultured in DMEM-F12 (GE Healthcare Life Sciences), supplemented with 5% horse serum (Invitrogen), 20 ng/mL epidermal growth factor (EGF, Miltenyi Biotec Inc), […] hydrocortisone (Sigma-Aldrich), 100 ng/mL cholera toxin (Sigma-Aldrich), 10 μg/mL insulin (Sigma-Aldrich), and 1% (v/v) penicillin-streptomycin (Sigma-Aldrich). Tumorigenic mammary epithelial MCF7 cells were grown in DMEM (Sigma-Aldrich) containing 10% fetal bovine serum (FBS), 1% (v/v) penicillin-streptomycin (Sigma-Aldrich), and 1% non-essential amino acids (0.1 mM). Human epidermoid carcinoma A431 cells were grown in DMEM (Sigma-Aldrich) containing 10% fetal bovine serum (FBS), 1% (v/v) penicillin-streptomycin (Sigma-Aldrich), 1% sodium pyruvate (Sigma-Aldrich), 1% sodium bicarbonate (Sigma-Aldrich), and 1% non-essential amino acids (0.1 mM). A PDMS stencil was designed and fabricated with a rectangular opening in the center, restricting the culture of epithelial monolayer within the central module (primary ECM) of mPA substrate (see e.g., FIG. 13A). PDMS stencils were air-dried, cleaned with 70% ethanol, and sterilized under UV light for 2 h. Afterwards, stencils were passivated overnight, with a sterile solution of 1% Pluronic and 1% Bovine serum albumin (BSA) in Phosphate buffered saline (PBS) to avoid cell adhesion, and carefully positioned on the PA gels. Cell suspension with 2×10^4 cells was dispensed into the PDMS reservoir covering the primary ECM region and left to grow for a prescribed duration of priming (1, 2, or 3 days) at 37° C. in a 5% CO2 humidified incubator. After this incubation period, the PDMS stencil was lifted off to allow cell sheet to migrate into the adjoining secondary ECM. Additional media was added to each well. For proliferation inhibition experiments, cells were treated with 2 mM thymidine (Sigma-Aldrich) after at least 6 h of cell seeding, to allow adequate attachment of cells to the substrate. For calcium chelation experiments, cells were incubated with 4 mM of EGTA (Sigma-Aldrich) after 3-day priming. […] Subsequently, coordinates of the leading edge were imported into a custom-made program in MATLAB and its advancement was calculated by averaging the distance of each point on the leading edge from the primary-secondary ECM interface. […] Cell migration tracks were subsequently analyzed to obtain migration speed and velocity angle distribution. Migration speed was calculated as a ratio between the sum of distances traveled by the cell between each time point and the total time. For each time interval, the angle between instantaneous velocity vector and the x axis was calculated and plotted the angle distribution for the entire migration tracking period.

In assay [2] the test system is MCF10A cells. Put plainly: Immunofluorescent staining for E-cadherin (cell-cell junctions). Conditions: 4 mM EGTA vs untreated. It is filed as cell-based, Human.

Two molecules from patent US20180105793A1, “DEVICE WITH MULTIPLE MICROENVIRONMENTS AND METHODS THEREOF” (WASHINGTON UNIVERSITY, priority 2016, published 2018) can be followed below.

Entries after “also recorded” stand apart in the source; their conditions may differ.

Take `O=C(O)CN(CCOCCOCCN(CC(=O)O)CC(=O)O)CC(=O)O` [EGTA]: the “memory-dependent migration of the leading edge” value in the assay on MCF10A cells [1] (MCF10A monolayer, 4 mM EGTA after 3-day priming) is “preserved”. Besides, in the assay with MCF10A cells [2], the “cell-cell communication / cell-cell junctions (E-cadherin images)” value is “disrupts cell-cell communication; also recorded: dysfunctional cell-cell junctions”.

Take `Cc1cn([C@H]2C[C@H](O)[C@@H](CO)O2)c(=O)[nH]c1=O` [thymidine]: in the assay on MCF10A cells [1] (MCF10A monolayer, 2 mM thymidine (proliferation inhibition)), the “trend of mechanical memory-dependent migration” value is on record as “held true”. The “cell migration speeds (leading edge)” value in the assay on MCF10A cells [1] (MCF10A monolayer, 2 mM thymidine (proliferation inhibition), secondary ECM after priming, vs untreated cells) is on record as “increased”. In addition, the “cell spreading (spreading area of individual cells in the secondary ECM)” value with MCF10A cells [1] (MCF10A, 2 mM thymidine, with vs without proliferation inhibition) was “increased spreading”.
